Among the data in patent publication EP1143981B1, “USE OF N-GLYCOLNEURAMINIC ACID AND ITS DERIVATIVES FOR THE MANUFACTURE OF A MEDICAMENT FOR THE TREATMENT OF HIV INFECTIONS” (Glukor, Inc., priority 1998, dated 2000) are IC50 values, retold here.

The test system of one test is HIV-1IIIB. Kind of test: PBMC cell-based anti-HIV assay. The note with it: PBMCs. The protocol: (§1) For the standard PBMC assay, PHA-P stimulated cells from at least two normal donors were pooled, diluted in fresh medium to a final concentration of 1 x 10^6 cells/mL, and plated in the interior wells of a 96 well round bottom microplate at 50 µL/well (5 x 10^4 cells/well). Test drug dilutions were prepared at a 2X concentration in microfuge tubes and 100 µL of each concentration was placed in appropriate wells in a standard format. A predetermined dilution of virus stock was placed in each test well (50 µL, final MOI ≅ 0.1). Wells with cells and virus alone were used for virus control. Separate plates were prepared identically without virus for drug cytotoxicity studies using an XTT assay system. The PBMC cultures were maintained for seven days following infection, at which time cell-free supernatant samples were collected and assayed for reverse transcriptase activity as described below.
Reverse Transcriptase Activity Assay: A microtiter based reverse transcriptase (RT) reaction was utilized as described by Buckheit et al., (1991), AIDS Research and Human Retroviruses, 7:295-302. Tritiated thymidine triphosphate (^3H-TTP) was suspended in distilled H2O at 5 Ci/mL. […] Opti-Fluor-O (Packard) was added to each sample and incorporated radioactivity was quantified utilizing a Wallac 1450 MicroBeta Plus liquid scintillation counter. […]

The test system of a further test is HIV-1ROJO. Kind of test: Reverse transcriptase activity assay in infected PBMCs. Type of test: cell-based. The note with it: PBMCs.
Excerpt: PBMCs were isolated from fresh human blood obtained commercially from the American Red Cross (Baltimore, Maryland). CEM-SS cells were obtained from the NIH AIDS reagent program. The low passage, lymphotropic clinical isolate ROJO was obtained from a pediatric patient attending the AIDS Clinic at the University of Alabama at Birmingham. Phytohemagglutinin (PHA-P) was obtained from Sigma Chemical Co. (St. Louis, MO) and recombinant IL-2 was obtained from Amgen (San Francisco, CA). As a positive control for antiviral assays, AZT was obtained from the NIH AIDS Reagent Program. HIV-1RF also was obtained from the NIH AIDS reagent program. Tritiated thymidine triphosphate was obtained from New England Nuclear (Boston, MA). Each plate in each experiment contained cell control wells (cells only), virus control wells (cells plus virus), drug toxicity control wells (cells plus drug only), drug colorimetric control wells (drug only) as well as experimental wells (drug plus cells plus virus).
Fresh human PBMCs were isolated from voluntary Red Cross donors, seronegative for HIV and HBV. Leukophoresed blood was diluted 1:1 with Dulbecco's PBS, layered over 14 mL of Ficoll-Hypaque density gradient in a 50mL centrifuge and then centrifuged for 30 minutes at 600 x g. Banded PBMCs were gently aspirated from the resulting interface and subsequently washed twice with PBS by low speed centrifugation. […] PBMCs were maintained in this medium at a concentration of 1-2 x 10^6 cells/mL with bi-weekly medium changes until used in the assay.
as §1
Virus Preparation: Pre-tittered aliquots of HIV-1ROJO and HIV-1RF were removed from the freezer (-80°C) and thawed to room temperature in a biological safety cabinet. The virus was resuspended and diluted into tissue culture medium such that the amount of virus added to each well in a volume of 50 µL will be the amount determined to give complete cell killing at 6 days post-infection.
Reverse Transcriptase Activity Assay: A microtiter based reverse transcriptase (RT) reaction was utilized as described by Buckheit et al., (1991), AIDS Research and Human Retroviruses, 7:295-302. Tritiated thymidine triphosphate (^3H-TTP) was suspended in distilled H2O at 5 Ci/mL. Poly rA and oligo dT were prepared as a stock solution which was kept at -20°C. RT reaction buffer was prepared fresh on a daily basis and contained 125 µL 1M EGTA, 125 µL dH2O, 110 µL 10% SDS, 50 µL 1M Tris (pH 7.4), 50 µL 1M DTT, and 40 µL 1M MgCl2. These three solutions were mixed together in a ratio of 2 parts ^3H-TTP, 1 part poly rA:oligo dT, and 1 part reaction buffer. Ten microliters of this reaction mixture were placed in a round bottom microtiter plate and 15 µL of virus containing supernatant were added and mixed. The plate was incubated at 37°C in a water bath with a solid support to prevent submersion of the plate and incubated for 60 minutes.

The term IC50 denotes the concentration that gives 50% inhibition.

Take `Cc1cn([C@H]2C[C@H](N=[N+]=[N-])[C@@H](CO)O2)c(=O)[nH]c1=O` [AZT, reference compound]: the half-inhibitory concentration (IC50) in the test with HIV-1IIIB was found to be 2 nM; in the test with HIV-1ROJO (2hr pretreatment) it was 4 nM; with HIV-1ROJO (without pretreatment) it was 8 nM.
